Measurements reported in paper PMC4503722, “Novel Phenotypic Outcomes Identified for a Public Collection of Approved Drugs from a Publicly Accessible Panel of Assays” (PLoS ONE, 2015).
Where a name gives a salt, the structure may show the parent alone. Read-outs that look alike come from different tables or passages of the source.

What was measured:
DLD-1 = experiment: cells; assay type: cell-based
NCI-H716 cells = experiment: cells; assay type: cell-based, Human
hp70S6K1 (RPS6KB1) = target: T1, hp70S6K1 (RPS6KB1) (Homo sapiens, UniProt P23443); experiment: Cerep LANCE kinase assay hp70S6K1 (S1 assay 31); assay type: biochemical; settings: read-out: p70S6K1
T1 construct: purchased Cerep (LANCE kinase assay platform, contract assay)
T1 sequence (P23443 whole entry): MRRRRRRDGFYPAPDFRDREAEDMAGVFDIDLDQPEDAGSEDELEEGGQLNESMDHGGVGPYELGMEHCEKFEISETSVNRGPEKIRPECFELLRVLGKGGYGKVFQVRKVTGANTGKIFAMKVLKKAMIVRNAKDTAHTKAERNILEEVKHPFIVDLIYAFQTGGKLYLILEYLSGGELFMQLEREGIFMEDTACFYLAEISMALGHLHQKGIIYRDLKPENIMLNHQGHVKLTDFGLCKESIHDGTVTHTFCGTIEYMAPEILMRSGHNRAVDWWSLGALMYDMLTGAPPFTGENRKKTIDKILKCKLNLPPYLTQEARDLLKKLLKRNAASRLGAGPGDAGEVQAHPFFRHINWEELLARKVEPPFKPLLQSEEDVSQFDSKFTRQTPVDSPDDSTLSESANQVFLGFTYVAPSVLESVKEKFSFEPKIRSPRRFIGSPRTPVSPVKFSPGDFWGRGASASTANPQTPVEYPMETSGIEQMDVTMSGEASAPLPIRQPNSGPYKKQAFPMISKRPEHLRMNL

[1] = tested on: HCT116 cells treated with a GSK3β inhibitor; experiment: cells; assay type: cell-based
[2] = tested on: nuclear β-catenin in C2C12 cells; experiment: cells; assay type: cell-based
[3] = tested on: endothelial tube formation in co-cultures of ECFCs and ADSCs treated with VEGF; experiment: cells; assay type: cell-based, human
hGSK3b = target: T2, hGSK3b (Homo sapiens, UniProt P49841); experiment: Cerep LANCE kinase assay hGSK3b (S1 assay 34); assay type: biochemical; settings: read-out: GSK3b
T2 construct: purchased Cerep (LANCE kinase assay platform, contract assay)
T2 sequence (P49841 whole entry): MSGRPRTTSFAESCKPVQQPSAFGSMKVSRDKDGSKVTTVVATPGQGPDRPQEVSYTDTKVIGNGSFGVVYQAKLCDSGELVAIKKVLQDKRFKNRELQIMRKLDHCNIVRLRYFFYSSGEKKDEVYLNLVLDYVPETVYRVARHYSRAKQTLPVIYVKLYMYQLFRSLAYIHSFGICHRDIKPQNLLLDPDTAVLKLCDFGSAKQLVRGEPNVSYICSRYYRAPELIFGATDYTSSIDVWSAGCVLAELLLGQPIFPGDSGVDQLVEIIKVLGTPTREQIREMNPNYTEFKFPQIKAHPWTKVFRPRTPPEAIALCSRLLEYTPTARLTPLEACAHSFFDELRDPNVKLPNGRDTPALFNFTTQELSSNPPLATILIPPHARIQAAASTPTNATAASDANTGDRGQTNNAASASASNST

hKDR = target: T3, hKDR (Homo sapiens, UniProt P35968); experiment: Cerep LANCE kinase assay hKDR (S1 assay 32); assay type: biochemical
T3 construct: purchased Cerep (LANCE kinase assay platform, contract assay)
T3 sequence (P35968 20-1356): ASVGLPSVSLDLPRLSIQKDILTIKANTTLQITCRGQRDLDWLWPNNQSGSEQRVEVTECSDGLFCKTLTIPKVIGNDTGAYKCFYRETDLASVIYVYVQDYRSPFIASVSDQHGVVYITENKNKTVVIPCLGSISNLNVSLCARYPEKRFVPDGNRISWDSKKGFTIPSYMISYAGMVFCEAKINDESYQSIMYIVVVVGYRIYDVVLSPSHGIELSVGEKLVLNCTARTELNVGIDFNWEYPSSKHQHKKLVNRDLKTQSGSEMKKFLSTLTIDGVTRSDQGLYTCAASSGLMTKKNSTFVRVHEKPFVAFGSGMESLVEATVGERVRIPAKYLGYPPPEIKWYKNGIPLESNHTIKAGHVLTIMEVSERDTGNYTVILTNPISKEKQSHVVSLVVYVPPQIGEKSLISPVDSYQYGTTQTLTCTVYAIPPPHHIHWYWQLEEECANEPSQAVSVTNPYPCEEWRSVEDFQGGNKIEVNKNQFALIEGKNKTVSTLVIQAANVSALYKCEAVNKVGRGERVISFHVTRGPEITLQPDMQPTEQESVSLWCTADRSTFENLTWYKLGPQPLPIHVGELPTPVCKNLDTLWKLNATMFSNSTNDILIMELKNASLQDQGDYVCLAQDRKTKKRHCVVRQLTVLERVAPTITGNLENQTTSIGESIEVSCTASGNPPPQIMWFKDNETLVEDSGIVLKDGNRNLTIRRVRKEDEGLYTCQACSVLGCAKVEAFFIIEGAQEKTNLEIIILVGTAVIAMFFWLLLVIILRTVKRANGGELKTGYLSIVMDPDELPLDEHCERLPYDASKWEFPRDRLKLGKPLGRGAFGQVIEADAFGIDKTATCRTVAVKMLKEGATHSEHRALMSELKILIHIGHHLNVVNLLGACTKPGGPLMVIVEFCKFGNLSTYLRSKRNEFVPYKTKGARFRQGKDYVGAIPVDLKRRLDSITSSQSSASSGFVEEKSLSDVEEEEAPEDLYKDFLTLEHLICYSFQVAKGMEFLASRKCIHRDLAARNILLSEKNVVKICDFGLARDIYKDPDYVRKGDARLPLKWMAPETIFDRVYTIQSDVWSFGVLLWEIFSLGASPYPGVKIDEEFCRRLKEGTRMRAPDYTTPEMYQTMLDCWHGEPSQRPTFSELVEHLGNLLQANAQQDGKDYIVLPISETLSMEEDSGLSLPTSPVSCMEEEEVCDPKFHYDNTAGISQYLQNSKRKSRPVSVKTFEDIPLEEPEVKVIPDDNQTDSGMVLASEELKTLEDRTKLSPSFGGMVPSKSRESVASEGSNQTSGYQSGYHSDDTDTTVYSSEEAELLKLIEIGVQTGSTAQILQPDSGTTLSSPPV

SW480 = experiment: cells; assay type: cell-based
hFLT3 = target: T4, hFLT3 (Homo sapiens, UniProt P36888); experiment: Cerep LANCE kinase assay hFLT3 (S1 assay 35); assay type: biochemical; settings: read-out: FLT3
T4 construct: purchased Cerep (LANCE kinase assay platform, contract assay)
T4 sequence (P36888 27-993): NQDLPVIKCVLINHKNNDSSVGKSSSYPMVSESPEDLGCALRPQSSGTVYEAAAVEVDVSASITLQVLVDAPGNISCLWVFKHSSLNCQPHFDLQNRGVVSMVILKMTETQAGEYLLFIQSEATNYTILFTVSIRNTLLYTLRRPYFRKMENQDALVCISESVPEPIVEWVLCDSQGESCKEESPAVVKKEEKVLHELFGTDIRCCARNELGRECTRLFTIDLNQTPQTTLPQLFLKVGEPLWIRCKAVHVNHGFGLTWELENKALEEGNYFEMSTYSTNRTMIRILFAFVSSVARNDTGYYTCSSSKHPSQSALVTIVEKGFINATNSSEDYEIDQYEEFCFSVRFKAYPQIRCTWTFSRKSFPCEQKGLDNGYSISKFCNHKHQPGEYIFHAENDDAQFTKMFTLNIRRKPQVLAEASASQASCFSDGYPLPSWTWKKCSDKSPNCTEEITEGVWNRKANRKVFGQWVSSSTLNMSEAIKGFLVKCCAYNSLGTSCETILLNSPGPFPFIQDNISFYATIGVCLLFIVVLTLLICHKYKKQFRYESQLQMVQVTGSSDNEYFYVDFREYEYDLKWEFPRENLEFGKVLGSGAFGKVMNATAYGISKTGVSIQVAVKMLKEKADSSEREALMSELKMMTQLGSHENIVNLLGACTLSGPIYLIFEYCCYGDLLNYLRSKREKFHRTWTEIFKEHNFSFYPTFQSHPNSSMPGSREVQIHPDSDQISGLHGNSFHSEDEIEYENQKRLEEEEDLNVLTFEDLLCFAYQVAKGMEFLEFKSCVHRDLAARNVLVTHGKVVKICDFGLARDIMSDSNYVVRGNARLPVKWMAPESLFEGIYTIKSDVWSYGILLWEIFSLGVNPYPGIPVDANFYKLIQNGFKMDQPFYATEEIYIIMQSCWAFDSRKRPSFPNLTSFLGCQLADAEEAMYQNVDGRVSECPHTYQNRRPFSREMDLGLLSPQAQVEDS

INS-1E cells = experiment: cells; assay type: cell-based, rat
HeLa cells = experiment: cells; assay type: cell-based; settings: for EC50: read-out: CellCycle G2/M
hJAK2 = target: T5, hJAK2 (Homo sapiens, UniProt O60674); experiment: Cerep LANCE kinase assay hJAK2 (S1 assay 33); assay type: biochemical; settings: read-out: JAK2
T5 construct: purchased Cerep (LANCE kinase assay platform, contract assay)
T5 sequence (O60674 whole entry): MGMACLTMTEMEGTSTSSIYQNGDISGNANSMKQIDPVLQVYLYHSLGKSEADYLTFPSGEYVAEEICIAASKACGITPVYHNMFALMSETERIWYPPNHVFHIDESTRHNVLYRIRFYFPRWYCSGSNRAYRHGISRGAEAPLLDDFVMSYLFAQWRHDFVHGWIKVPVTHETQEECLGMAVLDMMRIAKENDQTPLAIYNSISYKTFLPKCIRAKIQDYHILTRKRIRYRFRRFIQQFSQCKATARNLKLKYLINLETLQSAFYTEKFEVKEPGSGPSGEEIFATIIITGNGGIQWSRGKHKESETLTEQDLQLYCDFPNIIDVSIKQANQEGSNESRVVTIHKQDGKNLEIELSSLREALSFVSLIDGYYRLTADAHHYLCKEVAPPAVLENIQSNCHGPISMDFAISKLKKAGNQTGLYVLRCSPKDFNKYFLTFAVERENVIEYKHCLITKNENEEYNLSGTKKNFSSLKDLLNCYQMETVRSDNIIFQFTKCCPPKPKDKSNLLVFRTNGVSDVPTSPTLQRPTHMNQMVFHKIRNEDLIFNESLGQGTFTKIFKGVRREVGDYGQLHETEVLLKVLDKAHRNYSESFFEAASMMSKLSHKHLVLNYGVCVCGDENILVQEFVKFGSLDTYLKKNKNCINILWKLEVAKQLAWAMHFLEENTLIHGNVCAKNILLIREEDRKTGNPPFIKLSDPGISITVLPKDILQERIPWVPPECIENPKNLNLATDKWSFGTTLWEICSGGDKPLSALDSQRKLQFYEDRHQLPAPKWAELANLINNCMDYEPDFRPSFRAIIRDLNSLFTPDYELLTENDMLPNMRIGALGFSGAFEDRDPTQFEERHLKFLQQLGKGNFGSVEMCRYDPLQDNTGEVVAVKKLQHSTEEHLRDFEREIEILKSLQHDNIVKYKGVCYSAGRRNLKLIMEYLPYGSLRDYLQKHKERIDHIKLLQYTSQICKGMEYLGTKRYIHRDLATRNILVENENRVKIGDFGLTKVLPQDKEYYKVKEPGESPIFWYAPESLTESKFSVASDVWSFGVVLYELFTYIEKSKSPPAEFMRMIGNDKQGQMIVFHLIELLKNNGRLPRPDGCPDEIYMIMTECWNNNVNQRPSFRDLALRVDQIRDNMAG

HCT116 = experiment: cells; assay type: cell-based
[4] = Homo sapiens, HCT-116, GSK3b inhibitor pretreated, read-out: GSK3b inh pretreated_Viability ATP HCT116
[5] = Homo sapiens, IC50 / EC50; endothelial tube area, ADSC/ECFC co-culture; read-out: Anti-Angiogenesis

For `CCCOc1ccc2nc(NC(=O)OC)[nH]c2c1` [Oxibendazole], the IC50 (DLD-1; Homo sapiens, DLD-1, basal; DLD-1; read-out: Basal_Viability ATP DLD-1) was > 20 µM, the EC50 (NCI-H716 cells; Homo sapiens, NCI-H716; read-out: GLP 1 Secretion) was > 10 µM and the IC50 (hp70S6K1 (RPS6KB1); kinase assay) was > 20 µM. For the same compound, the IC50 ([1]; Homo sapiens, HCT-116, HCT116 pretreated with GSK3b inhibitor, read-out: GSK3b inh pretreated_Viability ATP HCT116) was > 20 µM, the EC50 ([2]; Mus musculus, C2C12; read-out: Wnt Pathway) was 0.0881 µM and the IC50 ([3]; Homo sapiens; read-out: Anti-Angiogenesis) was 0.328 µM. For the same compound, the IC50 (hGSK3b; kinase assay) was > 20 µM, the IC50 (hKDR; kinase assay, read-out: KDR) was > 20 µM and the IC50 (SW480; Homo sapiens, SW480, basal; SW480; read-out: Basal_Viability ATP SW480) was > 20 µM. For the same compound, the IC50 (hFLT3; kinase assay) was > 20 µM, the EC50 (INS-1E cells; Rattus norvegicus, INS-1E; read-out: Insulin Secretion) was > 10 µM and the EC50 (HeLa cells; Homo sapiens, HeLa, S2 Table, HeLa, 20 = no response at highest concentration) was 0.0567 µM. For the same compound, the IC50 (hJAK2; kinase assay) was > 20 µM and the IC50 (HCT116; Homo sapiens, HCT-116, basal; HCT116; read-out: Basal_Viability ATP HCT116) was 4.75 µM.
`CCCCCCNC(=O)n1cc(F)c(=O)[nH]c1=O` [Carmofur] was tested, and the IC50 (DLD-1; Homo sapiens, DLD-1, basal; read-out: Basal_Viability ATP DLD-1) was > 20 µM, the EC50 (NCI-H716 cells; Homo sapiens; IC50 / EC50; NCI-H716; read-out: GLP 1 Secretion) was > 10 µM and the IC50 (hp70S6K1 (RPS6KB1)) was > 20 µM. The IC50 [1, 4] was 10.5 µM, the EC50 ([2]; Mus musculus, C2C12, IC50 / EC50; C2C12 beta-catenin translocation; read-out: Wnt Pathway) was 4.98 µM and the IC50 [3, 5] was 4.49 µM. The IC50 (hGSK3b) was > 20 µM, the IC50 (hKDR; read-out: KDR) was > 20 µM and the IC50 (SW480; Homo sapiens, SW480, basal; read-out: Basal_Viability ATP SW480) was 10.6 µM. The IC50 (hFLT3) was > 20 µM, the EC50 (INS-1E cells; Rattus norvegicus; IC50 / EC50; INS-1E; read-out: Insulin Secretion) was > 10 µM and the EC50 (HeLa cells; Homo sapiens, HeLa, IC50 / EC50, HeLa) was > 10 µM. For the same compound, the IC50 (hJAK2) was > 20 µM and the IC50 (HCT116; Homo sapiens, HCT-116, basal; read-out: Basal_Viability ATP HCT116) was > 20 µM.
For `C=C(C)[C@H]1Cc2c(ccc3c2O[C@@H]2COc4cc(OC)c(OC)cc4[C@@H]2C3=O)O1` [rotenone, reference compound], the IC50 (DLD-1; Homo sapiens, DLD-1; Table 2; 72 h, Cell TiterGlo, non-adherent; 20 coded; read-out: DLD-1 viab. IC50) was 0.35 µM, the IC50 (DLD-1; Homo sapiens, DLD-1; read-out: Basal_Viability ATP DLD-1) was 0.35 µM and the EC50 (NCI-H716 cells; Homo sapiens, NCI-H716; read-out: GLP1 sec. EC50) was > 10 µM. For the same compound, the IC50 (hp70S6K1 (RPS6KB1)) was > 20 µM, the IC50 ([1]; Homo sapiens, HCT-116, read-out: HCT-116 (GSK3β) viab. IC50, Table 2, GSK3β inhibitor LY2090314 20 nM, 72 h, Cell TiterGlo, 20 coded) was 0.067 µM and the IC50 [1, 4] was 0.0667 µM. The EC50 ([2]; Mus musculus, C2C12; read-out: Wnt pot. EC50) was 0.25 µM, the EC50 ([2]; Mus musculus; IC50 / EC50; C2C12 beta-catenin translocation; read-out: Wnt Pathway) was 0.254 µM and the IC50 [3, 5] was 0.0257 µM. The IC50 ([3]; Homo sapiens; read-out: Anti-Angio IC50) was 0.026 µM, the IC50 (hGSK3b) was > 20 µM and the IC50 (hKDR; read-out: KDR) was > 20 µM. For the same compound, the IC50 (SW480; Homo sapiens, SW480; Table 2; 72 h, Cell TiterGlo, non-adherent; 20 coded; read-out: SW480 viab. IC50) was 0.16 µM, the IC50 (SW480; Homo sapiens, SW480; read-out: Basal_Viability ATP SW480) was 0.162 µM and the IC50 (hFLT3) was > 20 µM. The EC50 (INS-1E cells; Rattus norvegicus, INS-1E; read-out: Ins. sec. EC50) was > 10 µM, the “G2/M IC50 / EC50” value (HeLa cells) was 0.31 µM and the EC50 (HeLa cells; Homo sapiens, IC50 / EC50, HeLa) was 0.311 µM. For the same compound, the IC50 (hJAK2) was > 20 µM, the IC50 (HCT116; Homo sapiens, HCT-116, read-out: HCT-116 viab. IC50; Table 2; basal; 72 h, Cell TiterGlo, non-adherent; 20 coded) was 1.2 µM and the IC50 (HCT116; Homo sapiens, HCT-116; read-out: Basal_Viability ATP HCT116) was 1.18 µM.
In the case of `[O-][n+]1ccccc1SSc1cccc[n+]1[O-]` [Dipyrithione magnesium sulfate], the IC50 (DLD-1; read-out: Basal_Viability ATP DLD-1) is reported as > 20 µM, the EC50 (NCI-H716 cells; read-out: GLP 1 Secretion) is reported as > 10 µM and the IC50 (hp70S6K1 (RPS6KB1)) is reported as > 20 µM. The IC50 ([1]; read-out: GSK3b inh pretreated_Viability ATP HCT116) was > 20 µM, the EC50 ([2]; read-out: Wnt Pathway) was 0.131 µM and the IC50 ([3]; read-out: Anti-Angiogenesis) was 0.719 µM. The IC50 (hGSK3b) was > 20 µM, the IC50 (hKDR; read-out: KDR) was > 20 µM and the IC50 (SW480; read-out: Basal_Viability ATP SW480) was > 20 µM. The IC50 (hFLT3) was > 20 µM, the EC50 (INS-1E cells; read-out: Insulin Secretion) was > 10 µM and the EC50 (HeLa cells) was > 10 µM. The IC50 (hJAK2) was > 20 µM and the IC50 (HCT116; read-out: Basal_Viability ATP HCT116) was 20 µM.
With `Cc1cc(O)c2ccccc2c1O` [2-Methyl-1,4-naphthalenediol] the IC50 (DLD-1; basal; read-out: Basal_Viability ATP DLD-1) was 10 µM, the EC50 (NCI-H716 cells; IC50 / EC50; NCI-H716; read-out: GLP 1 Secretion) was > 10 µM and the IC50 (hp70S6K1 (RPS6KB1)) was > 20 µM. For the same compound, the IC50 ([1]; GSK3b inhibitor pretreated, read-out: GSK3b inh pretreated_Viability ATP HCT116) was 9.45 µM, the EC50 ([2]; IC50 / EC50; C2C12 beta-catenin translocation; read-out: Wnt Pathway) was 1.75 µM and the IC50 ([3]; IC50 / EC50; endothelial tube area, ADSC/ECFC co-culture; read-out: Anti-Angiogenesis) was 4.89 µM. For the same compound, the IC50 (hGSK3b) was 19.1 µM, the IC50 (hKDR; read-out: KDR) was 18.4 µM and the IC50 (SW480; basal; read-out: Basal_Viability ATP SW480) was 7.08 µM. For the same compound, the IC50 (hFLT3) was > 20 µM, the EC50 (INS-1E cells; IC50 / EC50; INS-1E; read-out: Insulin Secretion) was > 10 µM and the EC50 (HeLa cells; IC50 / EC50, HeLa) was > 10 µM. For the same compound, the IC50 (hJAK2) was > 20 µM and the IC50 (HCT116; basal; read-out: Basal_Viability ATP HCT116) was 1.49 µM.
For `COC(=O)Nc1nc2ccc(C(=O)c3ccccc3)cc2[nH]1` [Mebendazole], the IC50 (DLD-1; Homo sapiens, DLD-1, read-out: Basal_Viability ATP DLD-1) was 10.1 µM, the EC50 (NCI-H716 cells; Homo sapiens, NCI-H716, read-out: GLP 1 Secretion) was > 10 µM and the IC50 (hp70S6K1 (RPS6KB1); kinase assay) was > 20 µM. The IC50 ([1]; Homo sapiens, HCT-116, read-out: GSK3b inh pretreated_Viability ATP HCT116) was > 20 µM, the EC50 ([2]; Mus musculus, C2C12, read-out: Wnt Pathway) was 0.245 µM and the IC50 ([3]; Homo sapiens, read-out: Anti-Angiogenesis) was 0.37 µM. The IC50 (hGSK3b; kinase assay) was > 20 µM, the IC50 (hKDR) was 1.43 µM and the IC50 (SW480; Homo sapiens, SW480, read-out: Basal_Viability ATP SW480) was > 20 µM. For the same compound, the IC50 (hFLT3; kinase assay) was > 20 µM, the EC50 (INS-1E cells; Rattus norvegicus, INS-1E, read-out: Insulin Secretion) was > 10 µM and the EC50 (HeLa cells; Homo sapiens, HeLa) was 0.08 µM. For the same compound, the IC50 (hJAK2; kinase assay) was > 20 µM and the IC50 (HCT116; Homo sapiens, HCT-116, read-out: Basal_Viability ATP HCT116) was 8.26 µM.
